Data taken from article PMC4913735, “Non‐glycosidic compounds can stimulate both human and mouse iNKT cells” (European Journal of Immunology, 2016).
pKd: −log10 of the molar value.

Molecular target: human iNKT‐cell TCR (Homo sapiens, UniProt A0A0B4J240+P15813)
Assay: SPR (BIAcore) binding of soluble human iNKT‐cell TCR to hCD1d/lipid complexes
Experimental: Two analogs of ThrCer, ThrCer 6, and ThrCer 7 were synthesized. […] We first carried out measurements to assess the binding affinity of these ThrCer analogs to human iNKT‐cell TCR (Fig. 1B). Recombinant human CD1d (hCD1d) molecules were refolded in vitro with ThrCer 6 and ThrCer 7 separately and coupled to BIAcore chips, over which refolded human iNKT‐cell TCR was injected at different concentrations 34. […] Importantly, these findings were consistent with data obtained using tetrameric human iNKT‐cell TCRs as a staining reagent to identify lipid/CD1d complexes on the surface of C1R cells that had been transfected with hCD1d cDNA (hCD1d C1R cells) and subsequently loaded with the different lipids 34 (Fig. 1C).
Soluble human invariant TCR was generated as previously described 34 where both the Vα24 and Vβ11 chains were individually overexpressed in Escherichia coli, purified from the inclusion bodies, then refolded, and purified to generate the TCR heterodimers, according to Boulter et al. 43. The murine TCR was generated according to Pellici et al. as a chimeric molecule (with variable murine regions and human constant regions) 44. The hybrid alpha chains and beta chains were individually expressed in E. coli and purified from the inclusion bodies, then refolded as above.
SPR experiments were performed with a BIAcore 3000 to measure the affinity and kinetics of iNKT‐cell TCR binding to human CD1d–ligand complexes. In brief, approximately 1000 RU of the biotinylated hCD1d–lipid complexes were immobilized onto streptavidin‐coated CM5 sensor chips (BIAcore). Aliquots of purified TCR with increasing concentrations were passed over immobilized hCD1d–lipid complex at a flow rate of 10 μL/min for the equilibrium‐binding experiments or 50 μL/min for the kinetics experiments. The dissociation constants, K d, were calculated by fitting the data from the equilibrium‐binding experiment to a non‐linear regression saturation binding model (GraphPad Prism 5.0), whereas the k off data were estimated from the kinetics experiments by fitting the data with the built‐in models of the BIAeval3.1 software (BIAcore).

pKd (SPR equilibrium binding, hCD1d refolded with lipid, read-out: K d, human iNKT‐cell TCR binding to hCD1d/lipid complex): 5.50 | koff (SPR kinetics experiment, read-out: k off, human iNKT‐cell TCR from hCD1d/lipid complex): 0.114 s⁻¹
SMILES: CCCCCCCCCCCCCCCCCCCCCCCCCC(=O)N[C@@H](COC[C@H](O)[C@@H](O)CO)[C@H](O)[C@H](O)CCCCCCCCCCCCCC [ThrCer, threitolceramide, reference compound]
